Data as given in patent publication US20250032624A1, “SMALL MOLECULE DEGRADATION METHODS FOR TREATING ALS/FTD” (University of Florida Research Foundation, Incorporated, priority 2021, published 2025).

Legend:
C9ORF72 protein = assay: Western blot of total C9ORF72 protein in c9ALS/FTD iPSCs; type: cell-based, human
Experimental: Protein samples were prepared as described for analysis by the electrochemical luminescent sandwich immunoassay. Approximately 20 μg total protein was loaded onto a 4-20% Mini-PROTEAN® TGX™ Precast Protein Gel (Bio-Rad) and run at 130 V for 1 hour in Tris-Glycine/SDS running buffer (25 mM Tris base, 190 mM glycine, 0.1% SDS, pH 8.3). Following electrophoresis, the protein was transferred to a PVDF membrane using Tris-Glycine transfer buffer (25 mM Tris base, 190 mM glycine, 20% methanol, pH 8.3). After transfer, the membrane was washed with 1×TBST and blocked in a solution of 5% (w/v) milk in 1×TBST for 30 minutes at room temperature with shaking. […] The membrane was then washed three times with 1×TBST and protein expression was quantified using SuperSignal West Pico Plus Chemiluminescent Substrate (Life Technologies), per the manufacturer's protocol, and film exposure. To quantify β-actin expression, the membrane was washed with 1×TBST and stripped using 1×Stripping Buffer (200 mM glycine, 1% (v/v) Tween-20, 0.1% (w/v) SDS, pH 2.2). […] The membrane was washed with 1×TBST and incubated with 1:5,000 anti-mouse IgG horseradish-peroxidase secondary antibody conjugate (Cell Signaling Technology) in 1×TBST at room temperature for 1 hour. β-actin protein expression was quantified as previously described.

[1] = test system: r(G4C2)^exp-containing C9orf72 transcript; assay: C9orf72 transcript RT-qPCR in c9ALS/FTD iPSNs; type: cell-based, human
Experimental: Differentiated motor neurons (iPSNs) were derived from the iPSCs listed in the previous section. The differentiation process was based on a previously reported method with slight modifications^33,34. Briefly, iPSCs were plated into Matrigel-coated 100 mm dishes (30-40% confluence). Neuroepithelial induction was performed by replacing the Basal medium with Stage 1 medium [47.5% IMDM (Iscove's Modified Dulbecco's Medium), 47.5% F12 medium, 1% NEAA (Non-Essential Amino Acids) (Life Technologies), 2% B27 (Invitrogen), 1% N2 (Invitrogen), 1% PSA (Penicillin-Streptomycin-Amphotericin), 0.2 μM LDN193189 (Stemgent), 10 μM SB431542 (STEMCELL Technologies) and 3 μM CHIR99021 (Sigma-Aldrich)]. The medium was changed daily for 6 days, after which cells were detached from plates using Accutase (STEMCELL Technologies). Cells were seeded into 6-well plates (1.5×10^6 cells/well) in 3 mL of Stage 2 medium [Stage 1 medium supplemented with 0.1 μM All-trans RA (Sigma-Aldrich) and 1 μM SAG (Cayman Chemicals)]. Cells were maintained in Stage 2 medium, with daily medium changes, through Day 11 of the differentiation process. On Day 12, the Stage 2 cell medium was removed and replaced with Stage 3 medium [47.5% IMDM, 47.5% F12 medium, 1% NEAA, 2% B27, 1% N2, 1% PSA, 0.1 μM Compound E (Millipore; Catalog #: 565790), 2.5 μM DAPT (Sigma-Aldrich), 0.1 μM db-cAMP (Millipore), 0.5 μM All-trans RA, 0.1 μM SAG, 20 ng/mL ascorbic acid, 10 ng/mL BDNF (STEMCELL Technologies), and 10 ng/mL GDNF (STEMCELL Technologies)]. This medium was replaced every three days until the end of the differentiation process. Typically, a minimum of 18 days is required to produce immature differentiated motor neurons; 30 days of differentiation is the standard for producing mature differentiated spinal neurons. The cells can be maintained in medium for an additional 14-28 days after reaching maturation. […]
For iPSNs cells were differentiated, following the protocol outlined above, until Day 15. […] RNA was extracted as described above and the expression levels of C9orf72 variants was determined by RT-qPCR and normalized to GAPDH. […]

[2] = Toxicity to the mouse in the in vivo study; conditions: in vivo treatment
Experimental: A total of 20 age- and gender-matched mice (12 +/+PWR500 [5 Male and 7 Female] and 8 WT [4 Male and 4 Female]), ranging from 18-21 weeks old were used in therapeutic efficacy studies (Table 4). Mice were treated with a single bolus injection of 33 nmol of compound 2 formulated in 1% (v/v) DMSO/99% water, administered by an intracerebroventricular injection (ICV). Three weeks post injection, mice were euthanized, and tissue was harvested for study.

[3] = test system: lymphoblastoid cell lines (LCLs); assay: Cell viability in LCLs; type: cell-based, human; conditions: doses up to 1 μM
Experimental: Patient-derived LCLs were seeded overnight in 96-well plates (˜10^4 cells/well) and treated with compounds for 96 hours. Cell viability was measured using the CellTiter-Fluor™ Cell Viability Assay (Promega) per the manufacturer's protocol. iPSC cell viability was measured by seeding cells in Matrigel-coated 6-well plates with Basal medium (iPSC maintenance described above). After overnight incubation, the medium was replaced with fresh medium containing compounds diluted in 0.1% DMSO. Cells were treated with compound for 96 hours. Cell viability was measured using the AlamarBlue™ Cell Viability Reagent (DAL1025, Thermo Fisher Scientific) per the manufacturer's protocol. iPSN cell viability was measured by […]

## CCOC(=O)C1=C(Nc2ccccc2)S/C(=C\c2ccc(OCCOCCOCCOCCNC(=O)CCCOc3ccc4c(c3)c3cc5c(C(=O)N[C@H](C)CN(C)C)nccc5c(C)c3n4C)c(O)c2)C1=O [ALS Compound Formula I]
C9ORF72 protein
  effect on healthy C9ORF72 protein levels: no effect
[1]
  exon 1b transcript abundance: unaffected
[1]; 500 nM
  decrease in C9orf72 exon 2-3 abundance: ~40%
  decrease in C9orf72 intron 1 levels: ~50%
[2]
  toxicity to the mouse: without causing toxicity to the mouse
[3]
  toxicity: no significant toxicity
